# Reference: patent US10206944B2, “Chondroitin for use in medicine” (ALTERGON S.A., priority 2012, dated 2019)
# Columns and labels:
# Assay type in all cases: cell-based
# [1] = test system: primary cultures of human chondrocytes; experiment: Chondrocyte proliferation test (time-lapse videomicroscopy); conditions: 1% w/v
# From the text: Primary cultures of human chondrocytes isolated from healthy human cartilage samples obtained during rhinoplasty operations were used as model system. The tissue fragments just removed in the operating theatre were immersed in an 0.9% w/w NaCl saline solution and rapidly transferred to the laboratory for extraction of chondrocytes. Operating in sterile conditions under laminar-flow hood, the tissue sample was transferred to a petri dish where it was cut into small pieces using sterile tweezers and scalpels. The pieces of cartilage were then immersed in 0.01M phosphate buffer pH 7.4 (PBS) containing type 1 collagenase (3 mg/mL), dispase (4 mg/mL) and gentamicin (5 μL/mL of an 80 mg/mL solution) to ensure sterility during enzymatic digestion. The pieces were left to incubate overnight in a Falcon tube at 37° C., under stirring. After 16-18 h the solution was filtered through a 70 μm filter, transferring the parts adhering to the Falcon tube onto the filter and washing with 7-8 mL of DMEM 10% FBS. The filtrate was centrifuged at 1,500 rpm for 7 min, the supernatant was removed and the pellet was suspended in 10 mL of DMEM 10% FBS containing fungizone (5 μL/mL of an 80 mg/mL solution) and gentamicin (5 μL/mL of an 80 mg/mL solution). The cell suspension thus obtained was plated in a 25 cm^2 flask and incubated at 37° C. in a 5% CO2 atmosphere, with changes of medium every 2 or 3 days until complete confluency of the cell culture. The cells, which have the characteristic appearance of chondrocytes (small swollen cells with a slightly elongated shape), were detached from the base of the flask, counted and incubated again in fresh medium. Starting with 0.4 g of cartilage, about 2*10^6 cells were generally obtained in the second growth phase. Knowledge of the number of growth cycles to which the culture has previously been subjected is of crucial importance for primary cells; especially in the case of chondrocytes a cell differentiation process is observed wherein, as the growth phases proceed, the cells increasingly present an appearance morphologically similar to fibroblasts. For this reason the entire study is conducted with primary chondrocyte cultures at the 2nd-4th growth phase.
# The effect of chondroitin on chondrocyte proliferation was evaluated with time-lapse videomicroscopy, as described in Example 1. The study was performed comparatively with chondrocytes stimulated with chondroitin sulphate, using non-stimulated chondrocytes as control system. 20*10^3 cells were seeded per well of a 24-well multiwell plate. The cells were treated with chondroitin or chondroitin sulphate with an endotoxin content ≤0.1 EU/mg at a concentration of 1% w/v in DMEM 10% FBS; in the controls, the cells were seeded in DMEM 10% FBS. The experiments were conducted in triplicate and analysed for a total time ranging between 96 and 120 h. Image analysis, conducted with Image Pro-plus 5.1 analysis software, allowed a precise number of cells to be obtained with a manual count at times pre-set by the operator, in order to construct a growth curve over time. The data analysis indicates (Table 2) that the growth of the cells treated with chondroitin was better than that of the untreated cells and the cells treated with chondroitin sulphate.
# Collagen Type II = experiment: Real-Time PCR gene expression in human chondrocytes: type II collagen; conditions: 1% w/v, ratio to untreated control
# Experimental: To evaluate the biological effects of chondroitin on human chondrocyte cultures, the expression of a set of genes considered key to establishing the phenotype, and suitable markers for evaluating the quality of the tissue generated, was determined. The study was conducted on chondrocytes prepared from human cartilage, as reported in Example 2, the cells being grown in the presence of chondroitin or chondroitin sulphate. Using a standard procedure, 5*10^4 cells per well were seeded in a 24-well multiwell plate. The chondrocytes were grown in DMEM containing 1% w/v of chondroitin or chondroitin sulphate (endotoxin content ≤0.1 EU/mg). The cells were stimulated for 4, 7 and 10 days (Ishak et al., International J. of Pediatric Otorhinolaryngology, 2011, 75: 835-840), after which the RNA was extracted with Trizol Reagent, as described in the kit manual (Life Technologies Ltd, Milan, Italy). A qualitative morphological analysis of the cell culture was also conducted at the various times, in parallel with RNA extraction, by observing the corresponding samples at 4, 7 and 10 days under the optical microscope. The cells seeded at the three different times were observed under the microscope, and the images that best represented the cell growth conditions were acquired using a time-lapse videomicroscopy workstation. After RNA extraction, reverse transcription was performed with a total of 1 μg RNA and then with amplification by Real-Time PCR of genes which are specific markers for chondrocytes (Table 3).
# Genes connected with matrix production, such as aggrecan, type I collagen, type II collagen and the Sox9 gene, the expression of which is closely correlated with the expression of type II collagen, were analysed as specific markers for differentiation and characterisation of chondrocytes. (Akiyama H., Mod Rheumatol., 2008, 18(3): 213-9; Yang et al., J. of Orthopaedic Res. 2011).
# The gene expression of said markers on human chondrocytes cultured in basic medium (control) and with chondroitin treatment (C) or chondroitin sulphate treatment (CS) was analysed on cell cultures in the second and third growth phases.
# The results of the gene expression analysis were reported as the average of at least 3 independent experiments for tests conducted in the presence of C or CS, on cells in phases 2 and 3.
# type II collagen = experiment: Phenotype analysis with immunohistochemical tests on human chondrocytes
# Experimental: The evaluation of the chondrocyte phenotype of fresh cells extracted from human cartilage tissue samples and after 4, 7 and 10 days' growth in medium containing chondroitin or chondroitin sulphate was conducted with immunohistochemical tests, using the Envision+(DaKo) kit which uses an antibody for type II collagen, considered to be a specific marker for chondrocyte differentiation (Stokes et al., Biochem. J., 2001, 360:461-470).
Substance,Number of chondrocytes ([1]; time 0 h) [Cells × 10^4],Number of chondrocytes ([1]; time 20 h) [Cells × 10^4],Number of chondrocytes ([1]; time 40 h) [Cells × 10^4],Number of chondrocytes ([1]; time 60 h) [Cells × 10^4],Number of chondrocytes ([1]; time 80 h) [Cells × 10^4],Number of chondrocytes ([1]; time 100 h) [Cells × 10^4],"Fold Expression, Collagen Type II (Collagen Type II; phase II, 4 g)","Fold Expression, Collagen Type II (Collagen Type II; phase II, 7 g)","Fold Expression, Collagen Type II (Collagen Type II; phase II, 10 g)","Fold Expression, Collagen Type II (Collagen Type II; phase III, 4 g)","Fold Expression, Collagen Type II (Collagen Type II; phase III, 7 g)","Fold Expression, Collagen Type II (Collagen Type II; phase III, 10 g)",positivity to type II collagen (type II collagen; after 4 days' treatment),positivity to type II collagen (type II collagen; longer times (7 and 10 days))
chondroitin,7.0 ± 0.7,10.2 ± 0.9,15.3 ± 1.3,22.0 ± 1.8,27.0 ± 2.0,32.0 ± 2.1,2.70 ± 0.32,2.4 ± 0.43,2.56 ± 0.75,1.69 ± 0.20,2.62 ± 0.47,2.3 ± 0.16,strong positivity to type II collagen,only maintained for longer times (7 and 10 days) in the cells treated with chondroitin
"chondroitin sulphate [CS, reference compound]",7.0 ± 0.5,10.0 ± 1.2,14.0 ± 1.8,18.0 ± 1.6,21.8 ± 1.7,25.0 ± 2.5,2.8 ± 0.75,1.25 ± 0.45,0.58 ± 0.29,0.50 ± 0.01,,0.8 ± 0.45,strong positivity to type II collagen,
